Data set [1] relates to Bemisia tabaci whiteflies. Particulars: cited from earlier work; for repellent to Bemisia tabaci whiteflies: purified compounds, Bleeker et al., Phytochemistry 2011; for attractiveness of cultivated tomato to B. tabaci after addition of the compound: compared with neighbouring siblings, Bleeker et al. 2011.
Data set [2] concerns fourth instar larvae of Colorado potato beetle. Particulars: Antonious et al. 2005; cited from earlier work.
In data set [3] the test system is adult whiteflies B. tabaci. Particulars: Antonious et al. 2005; cited from earlier work.
A further data set relates to B. tabaci (biotype Q). The experiment in a line: Clip cage bioassay B. tabaci (whitefly). It counts as in vivo, Bemisia tabaci. The conditions noted are these: clip cages, 20 adults, after 5 days; compared with S. lycopersicum C32. Here is the method: An interspecies cross between S. lycopersicum and S. habrochaites was performed and F2 lines were transferred to the greenhouse at the University of Amsterdam. The F2 plants were tested for their production of 7-epizingiberene. Cuttings were made of 7-epizingiberene producing F2 lines, S. lycopersicum C32 (moneymaker) and of S. habrochaites (PI127826). Both a parental line of the initial cross.
Two cuttings of genotypes PI127826 and C32 and the respective F2s received 4 clip cages, each of which contained 20 adult B. tabaci (biotype Q) initially collected in Almeria (Spain) and reared continuously on cucumber under laboratory conditions (see Bleeker et al., 2009—Plant Physiol.). After 5 days, the total number and percentage of dead flies and total nr of eggs (combined abaxial and adaxial side of leaves) was determined.

The conditions of data set [4]: isolated compound; previously observed by Bleeker et al. 2011; cited from earlier work.
Another data set deals with Tuta absoluta. The experiment in a line: No-choice oviposition assay Tuta absoluta. Format: in vivo. The conditions noted are these: F2 plants, FIGS. 10A and 10B. As to the method: Tuta absoluta (order: Lepidoptera) were reared on tomato (S. lycopersicum). A no-choice assay was performed for 7 days. 5 adults were allowed to oviposit their eggs on S. lycopersicum (C32) plants and on F2 plants arisen from an interspecies cross between S. lycopersicum (C32) and S. habrochaites (PI127826). After 7 days, Tuta abosoluta oviposition (number of eggs deposited) was determined on the abaxial and adaxial side of six leaves per plant genotype. F2 plants were characterized for 7-epizingiberene content after the assay and Tuta abosoluta oviposition (number of eggs deposited) was correlated to the content of 7-epizingiberene.

Data set [5] is described as follows: Enzyme activity assay with E-E-FPP, products by enantioselective GC-MS. The conditions noted are these: heterologously expressed; SPME, chiral column. Format: biochemical. As to the method: Activity assays were performed in 20 mL glass vials in a total volume of 500 μL 50 mM HEPES, pH7.2, 100 mM KCl, 7.5 mM MgCl2, 20 μM MgCl2, 5% (v/v) glycerol, 5 mM DTT with 50 μL protein and either 2 mM cis-FPP (2Z-6Z-farnesyl diphosphate), trans-FPP (E-E-farnesyl diphosphate), GPP (geranyl diphosphate), NDP (neryl diphosphate), or GGPP (geranylgeranyl diphosphate) as a substrate (Echelon Biosciences Incorporated, Salt Lake City, USA). Vials were closed with a teflon lined crimp cap immediately and incubated under moderate shaking for 1 hour at 30° C.
Enzyme products were sampled with a Solid Phase Micro Extraction fiber (SPME) for 10 minutes after the vial had been agitated and heated to 50° C. The fiber was desorbed for 1 minute in an Optic injector port (ATAS GL Int. Zoeterwoude, NL) which was kept at 220° C. For liquid injection 1-3 μL of sample in hexane was injected.
In order to separate alpha-zingiberene from 7-epizingiberene the Astec CHIRALDEX™ B-DM column (30m×0.25 mm×0.12 μm film thickness; Supelco) was selected. The column was placed in an 6890 N gas chromatograph (Agilent, Amstelveen, NI). […] Helium was used as a carrier gas. Mass spectra were generated with the ion source set to −70V at 200° C. and collected with a Time-of-Flight MS (Leco, Pegasus III, St. Joseph, Mich., USA) at 1850 V, with an acquisition rate of 20 scans per second.

Data set [6] can be described thus: Enzyme activity assay with zFPP, products by enantioselective GC-MS. Format: biochemical. Particulars: heterologously expressed in E. coli; SPME, chiral column. Here is the method:
The full length gene (comprising SEQ ID NO:4 5′ of SEQ ID NO:2 (SEQ ID NO:4-SEQ ID NO:2)) was cloned into the pGEX-KG expression vector (Guan and Dixon 1991). Constructs were transformed to C41 (DE3) E. coli cells (Dumon-Seignovert et al., 2004). As a control, empty pGEX-KG vector was transformed. A culture was grown to an OD600 of 0.5-0.6 at 37° C. and placed at 4° C. for 30 min. Protein expression was induced with 1 mM isopropyl β-D-1-thiogalactopyranoside (IPTG). After 16 hours incubation at 16° C., cells were harvested by centrifugation. The supernatant was removed and the pellet was resuspended in assay buffer (25 mM HEPES, pH 7.2, 10 mM MgCl2, 10% (v/v) glycerol) with added lysozyme (1 mg mL^−1) and proteinase inhibitors and incubated on ice for 30 minutes and subsequently sonicated. The lysate was centrifuged and the supernatant was stored at −80° C. Activity assays were performed in 500 μL 50 mM HEPES, pH7.2, 100 mM KCl, 7.5 mM MgCl2, 20 μM MgCl2, 5% (v/v) glycerol, 5 mM DTT with 50 μL protein and 2 mM cis-FPP(2Z-6Z-farnesyl diphosphate) as substrate. Enzyme products were analyzed by GC-MS with Solid Phase Micro Extraction fiber (SPME). Terpene products were identified using standards and comparing ion spectra, retention time and Kovats Index (see FIGS. 1 and 2). […]

With `CC(C)=CCC[C@H](C)c1ccc(C)cc1` [S-curcumene], the “repellent to Bemisia tabaci whiteflies” value in data set [1] is reported as “do not”.
As for `CCCCCCCCCC(C)=O` [2-undecanone], the “toxic effect against fourth instar larvae of Colorado potato beetle” value in data set [2] was “toxic effect”.
With `CC(C)=CCC[C@H](C)[C@@H]1C=CC(C)=CC1` [alpha-zingiberene], the “repellent to Bemisia tabaci whiteflies” value in data set [1] is given as “do not”.
As for `CCCCCCCCCCCC(C)=O` [2-tridecanone], the “toxic effect against adult whiteflies B. tabaci” value in data set [3] is reported as “toxic effect”.
For `CC(C)=CCC[C@@H](C)c1ccc(C)cc1` [R-curcumene], in data set [1], the “attractiveness of cultivated tomato to B. tabaci after addition of the compound” value is “less attractive” and the “repellent to Bemisia tabaci whiteflies” value was “act as repellent”.
Regarding `CC(C)=CCC[C@@H](C)[C@@H]1C=CC(C)=CC1` [7-epizingiberene], the “resistance to whiteflies (adult mortality and oviposition)” value with B. tabaci (biotype Q) is recorded as “enhances resistance to whiteflies”. For the same molecule, in data set [1], the “attractiveness of cultivated tomato to B. tabaci after addition of the compound” value is on record as “less attractive” and the “repellent to Bemisia tabaci whiteflies” value is recorded as “act as repellent”. The “stability when exposed to air” value in data set [4] is on record as “spontaneously convert to R-curcumene”. Besides, in the data set on Tuta absoluta, the “correlation of oviposition with 7-epizingiberene content” value was “negatively correlated”.

B1: ObZIS: sweet lemon basil zingiberene synthase (Iijima et al., 2004), alpha-zingiberene synthase (protein, UniProt Q5SBP4 1-541, looked up)
Alpha-zingiberene synthase: MESRRSANYQASIWDDNFIQSLASPYAGEKYAEKAEKLKTEVKTMIDQTRDELKQLELIDNLQRLGICHHFQDLTKKILQKIYGEERNGDHQHYKEKGLHFTALRFRILRQDGYHVPQDVFSSFMNKAGDFEESLSKDTKGLVSLYEASYLSMEGETILDMAKDFSSHHLHKMVEDATDKRVANQIIHSLEMPLHRRVQKLEAIWFIQFYECGSDANPTLVELAKLDFNMVQATYQEELKRLSRWYEETGLQEKLSFARHRLAEAFLWSMGIIPEGHFGYGRMHLMKIGAYITLLDDIYDVYGTLEELQVLTEIIERWDINLLDQLPEYMQIFFLYMFNSTNELAYEILRDQGINVISNLKGLWVELSQCYFKEATWFHNGYTPTTEEYLNVACISASGPVILFSGYFTTTNPINKHELQSLERHAHSLSMILRLADDLGTSSDEMKRGDVPKAIQCFMNDTGCCEEEARQHVKRLIDAEWKKMNKDILMEKPFKNFCPTAMNLGRISMSFYEHGDGYGGPHSDTKKKMVSLFVQPMNITI
Take B1: the “product formed from E-E-FPP” value in data set [5] is given as “made alpha-zingiberene”.

B2: ShZIS: 7-epizingiberene synthase protein from Solanum habrochaites, SEQ ID NO:1 (protein)
chain: CSHSTPSSMNGFEDARDRIRESFGKVELSPSSYDTAWVAMVPSKHSLNEPCFPQCLDWIIENQREDGSWGLNPSHPLLLKDSLSSTLACLLALTKWRVGDEQIKRGLGFIETQSWAIDNKDQISPLGFEIIFPSMIKSAEKLNLNLAINKRDSTIKRALQNEFTRNIEYMSEGFGELCDWKEIIKLHQRQNGSLFDSPATTAAALIYHQHDKKCYEYLNSILQQHKNWVPTMYPTKIHSLLCLVDTLQNLGVHRHFKSEIKKALDEIYRLWQQKNEEIFSNVTHCAMAFRLLRISYYDVSSDELAEFVDEEHFFATSGKYTSHVEILELHKASQLAIDHEKDDILDKINNWTRTFMEQKLLNNGFIDRMSKKEVELALRNFYIISDLAENRRYIKSYEENNFKILKAAYRSPNINNKDLFIFSIRDFELCQAQHQEELQQLKRWFEDCRLDQLGLSEQFISASYLCAIPIVPGPELSDARLVYAKYVMLLTIVDDHFESFASTDECLNIIELVERWDDYASVGYKSERVKVLFSMFYKSIEEIATIAEIKQGRSVKNHLINLWLKVMKLMLMERVEWCSGKTIPRIEEYLYVSSITFGSRLIPLTTQYFIGIKISKDLLESDEIYGLCNFTGIVLRLLNDLQDSKREQKEGSINLVTLLMKSISEEEAIMKMKEILEMKRRELFKMVLVQKKGSQLPQLCKEIFWRTCKWAHFTYSQTDRYRFPEEMENHIDEVFYKPLNH
modifications: Solanum habrochaites
Take B2: in data set [6], the “product formed from Z-Z-FPP” value is reported as “made 7-epizingiberene”.
